The nature of assay [1]: Effective concentration for 50% protection of HIV-induced cytopathogenicity in MT-4 cells on the MTT assay.
Assay [2] can be described thus: Inhibitory concentration determined on an HIV infection model mediated by CXCR4.
Assay [3] is described as follows: Effective concentration for 50% protection of HIV-induced cytopathogenicity in MT-4 cells on the MTT assay. The source holds these as a separate data set. (Protection from cytopathic effect is a common read-out in antiviral testing.)

Molecules are shown by their SMILES.

As a reminder, the EC50 is the concentration needed to bring the measured effect to its halfway point. Read a high EC50 as weaker potency. As usually defined, the IC50 is the point on the concentration scale where inhibition reaches its midpoint.

In the case of `NCCCC[C@@H]1NC(=O)[C@H](CCCN=C(N)N)NC(=O)[C@H](Cc2ccc(O)cc2)NC(=O)[C@@H](NC(=O)[C@@H](NC(=O)[C@H](CCCN=C(N)N)NC(=O)[C@@H](N)CCCN=C(N)N)c2ccc3ccccc3c2)CSSC[C@@H](C(=O)N[C@@H](CCCN=C(N)N)C(=O)O)NC(=O)[C@H](CCCNC(N)=O)NC(=O)[C@H](CCCN=C(N)N)NC(=O)[C@H](Cc2ccc(O)cc2)NC(=O)[C@@H]2CCCN2C(=O)[C@@H](CCCCN)NC1=O` [Compound T140], a half-maximal response in assay [1] (EC50) required 3.3 nM. This compound returned an IC50 in assay [2] of 10 nM.
`NCCCC[C@@H]1NC(=O)[C@H](CCCN=C(N)N)NC(=O)[C@H](Cc2ccc(O)cc2)NC(=O)[C@@H](NC(=O)[C@@H](NC(=O)[C@H](CCCN=C(N)N)NC(=O)[C@@H](N)CCCN=C(N)N)c2ccc3ccccc3c2)CSSC[C@@H](C(=O)N[C@@H](CCCN=C(N)N)C(=O)O)NC(=O)[C@H](CCCNC(N)=O)NC(=O)[C@H](CCCNC(N)=O)NC(=O)[C@H](Cc2ccc(O)cc2)NC(=O)[C@@H]2CCCN2C(=O)[C@@H](CCCNC(N)=O)NC1=O` [Derivative of T140 peptide] came in with a concentration for a half-maximal effect (EC50) in assay [1] of 7.8 nM.
In turn, `NCCCC[C@@H]1NC(=O)[C@H](CCCN=C(N)N)NC(=O)[C@H](Cc2ccc(O)cc2)NC(=O)[C@@H](NC(=O)[C@@H](NC(=O)[C@H](CCCN=C(N)N)NC(=O)[C@@H](N)CCCN=C(N)N)c2ccc3ccccc3c2)CSSC[C@@H](C(=O)N[C@@H](CCCN=C(N)N)C(N)=O)NC(=O)[C@H](CCCNC(N)=O)NC(=O)[C@H](CCCN=C(N)N)NC(=O)[C@H](Cc2ccc(O)cc2)NC(=O)[C@@H]2CCCN2C(=O)[C@@H](CCCCN)NC1=O` [Derivative of T140 peptide] returned an EC50 in assay [1] of 72 nM.
In assay [3], `NCCCC[C@@H]1NC(=O)[C@H](CCCN=C(N)N)NC(=O)[C@H](Cc2ccc(O)cc2)NC(=O)[C@@H](NC(=O)[C@@H](NC(=O)[C@H](CCCN=C(N)N)NC(=O)[C@@H](N)CCCN=C(N)N)c2ccc3ccccc3c2)CSSC[C@@H](C(=O)N[C@@H](CCCN=C(N)N)C(N)=O)NC(=O)[C@H](CCCNC(N)=O)NC(=O)[C@H](CCCN=C(N)N)NC(=O)[C@H](Cc2ccc(O)cc2)NC(=O)[C@@H]2CCCN2C(=O)[C@@H](CCCNC(N)=O)NC1=O` [Derivative of T140 peptide] gave an EC50 of 4.6 nM. The same compound gave a half-maximal inhibitory concentration (IC50) in assay [2] of 24 nM.
`NCCCC[C@@H]1NC(=O)[C@H](CCCN=C(N)N)NC(=O)[C@H](Cc2ccc(O)cc2)NC(=O)[C@@H](NC(=O)[C@@H](NC(=O)[C@H](CCCN=C(N)N)NC(=O)[C@@H](N)CCCN=C(N)N)c2ccc3ccccc3c2)CSSC[C@@H](C(=O)N[C@@H](CCCN=C(N)N)C(N)=O)NC(=O)[C@H](CCCNC(N)=O)NC(=O)[C@H](CCCNC(N)=O)NC(=O)[C@H](Cc2ccc(O)cc2)NC(=O)[C@@H]2CCCN2C(=O)[C@@H](CCCNC(N)=O)NC1=O` [Derivative of T140 peptide] showed an EC50 in assay [1] of 2.7 nM.
Compound `NCCCC[C@@H]1NC(=O)[C@H](CCCN=C(N)N)NC(=O)[C@H](Cc2ccc(O)cc2)NC(=O)[C@@H](NC(=O)[C@@H](NC(=O)[C@H](CCCN=C(N)N)NC(=O)[C@@H](N)CCCNC(N)=O)c2ccc3ccccc3c2)CSSC[C@@H](C(=O)N[C@@H](CCCN=C(N)N)C(=O)O)NC(=O)[C@H](CCCNC(N)=O)NC(=O)[C@H](CCCN=C(N)N)NC(=O)[C@H](Cc2ccc(O)cc2)NC(=O)[C@@H]2CCCN2C(=O)[C@@H](CCCNC(N)=O)NC1=O` [Derivative of T140 peptide] returned an EC50 in assay [1] of 36 nM.
In assay [1], `NCCCC[C@@H]1NC(=O)[C@H](CCCN=C(N)N)NC(=O)[C@H](Cc2ccc(O)cc2)NC(=O)[C@@H](NC(=O)[C@@H](NC(=O)[C@H](CCCN=C(N)N)NC(=O)[C@@H](N)CCCNC(N)=O)c2ccc3ccccc3c2)CSSC[C@@H](C(=O)N[C@@H](CCCN=C(N)N)C(=O)O)NC(=O)[C@H](CCCNC(N)=O)NC(=O)[C@H](CCCNC(N)=O)NC(=O)[C@H](Cc2ccc(O)cc2)NC(=O)[C@@H]2CCCN2C(=O)[C@@H](CCCCN)NC1=O` [Derivative of T140 peptide] yielded an EC50 of 68 nM.
For the compound `NCCCC[C@@H]1NC(=O)[C@H](CCCN=C(N)N)NC(=O)[C@H](Cc2ccc(O)cc2)NC(=O)[C@@H](NC(=O)[C@@H](NC(=O)[C@H](CCCN=C(N)N)NC(=O)[C@@H](N)CCCNC(N)=O)c2ccc3ccccc3c2)CSSC[C@@H](C(=O)N[C@@H](CCCN=C(N)N)C(N)=O)NC(=O)[C@H](CCCNC(N)=O)NC(=O)[C@H](CCCN=C(N)N)NC(=O)[C@H](Cc2ccc(O)cc2)NC(=O)[C@@H]2CCCN2C(=O)[C@@H](CCCNC(N)=O)NC1=O` [Derivative of T140 peptide], in assay [1], it took 1.2 nM to reach a half-maximal effect (EC50).
For the compound `NCCCC[C@@H]1NC(=O)[C@H](CCCN=C(N)N)NC(=O)[C@H](Cc2ccc(O)cc2)NC(=O)[C@@H](NC(=O)[C@@H](NC(=O)[C@H](CCCN=C(N)N)NC(=O)[C@@H](N)CCCNC(N)=O)c2ccc3ccccc3c2)CSSC[C@@H](C(=O)N[C@@H](CCCN=C(N)N)C(N)=O)NC(=O)[C@H](CCCNC(N)=O)NC(=O)[C@H](CCCNC(N)=O)NC(=O)[C@H](Cc2ccc(O)cc2)NC(=O)[C@@H]2CCCN2C(=O)[C@@H](CCCCN)NC1=O` [Derivative of T140 peptide], in assay [1], the EC50 was found to be 40 nM.
On to `NCCCC[C@@H]1NC(=O)[C@H](CCCNC(N)=O)NC(=O)[C@H](Cc2ccc(O)cc2)NC(=O)[C@@H](NC(=O)[C@@H](NC(=O)[C@H](CCCN=C(N)N)NC(=O)[C@@H](N)CCCN=C(N)N)c2ccc3ccccc3c2)CSSC[C@@H](C(=O)N[C@@H](CCCN=C(N)N)C(=O)O)NC(=O)[C@H](CCCNC(N)=O)NC(=O)[C@H](CCCN=C(N)N)NC(=O)[C@H](Cc2ccc(O)cc2)NC(=O)[C@@H]2CCCN2C(=O)[C@@H](CCCCN)NC1=O` [Derivative of T140 peptide], for which it took 2.8 nM to reach a half-maximal effect in assay [3] (EC50). The same compound yielded an IC50 in assay [2] of 8 nM.
The matching figures for `NCCCC[C@@H]1NC(=O)[C@H](CCCNC(N)=O)NC(=O)[C@H](Cc2ccc(O)cc2)NC(=O)[C@@H](NC(=O)[C@@H](NC(=O)[C@H](CCCN=C(N)N)NC(=O)[C@@H](N)CCCN=C(N)N)c2ccc3ccccc3c2)CSSC[C@@H](C(=O)N[C@@H](CCCN=C(N)N)C(=O)O)NC(=O)[C@H](CCCNC(N)=O)NC(=O)[C@H](CCCN=C(N)N)NC(=O)[C@H](Cc2ccc(O)cc2)NC(=O)[C@@H]2CCCN2C(=O)[C@@H](CCCNC(N)=O)NC1=O` [Derivative of T140 peptide]: 0.5 nM and 51 nM.
Compound `NCCCC[C@@H]1NC(=O)[C@H](CCCNC(N)=O)NC(=O)[C@H](Cc2ccc(O)cc2)NC(=O)[C@@H](NC(=O)[C@@H](NC(=O)[C@H](CCCN=C(N)N)NC(=O)[C@@H](N)CCCN=C(N)N)c2ccc3ccccc3c2)CSSC[C@@H](C(=O)N[C@@H](CCCN=C(N)N)C(=O)O)NC(=O)[C@H](CCCNC(N)=O)NC(=O)[C@H](CCCNC(N)=O)NC(=O)[C@H](Cc2ccc(O)cc2)NC(=O)[C@@H]2CCCN2C(=O)[C@@H](CCCCN)NC1=O` [Derivative of T140 peptide] returned an EC50 in assay [1] of 8.9 nM.
`NCCCC[C@@H]1NC(=O)[C@H](CCCNC(N)=O)NC(=O)[C@H](Cc2ccc(O)cc2)NC(=O)[C@@H](NC(=O)[C@@H](NC(=O)[C@H](CCCN=C(N)N)NC(=O)[C@@H](N)CCCN=C(N)N)c2ccc3ccccc3c2)CSSC[C@@H](C(=O)N[C@@H](CCCN=C(N)N)C(N)=O)NC(=O)[C@H](CCCNC(N)=O)NC(=O)[C@H](CCCN=C(N)N)NC(=O)[C@H](Cc2ccc(O)cc2)NC(=O)[C@@H]2CCCN2C(=O)[C@@H](CCCCN)NC1=O` [Derivative of T140 peptide] showed a half-maximal effective concentration (EC50) in assay [3] of 0.6 nM. For the same compound, in assay [2], the IC50 worked out at 12 nM.
Consider `NCCCC[C@@H]1NC(=O)[C@H](CCCNC(N)=O)NC(=O)[C@H](Cc2ccc(O)cc2)NC(=O)[C@@H](NC(=O)[C@@H](NC(=O)[C@H](CCCN=C(N)N)NC(=O)[C@@H](N)CCCN=C(N)N)c2ccc3ccccc3c2)CSSC[C@@H](C(=O)N[C@@H](CCCN=C(N)N)C(N)=O)NC(=O)[C@H](CCCNC(N)=O)NC(=O)[C@H](CCCN=C(N)N)NC(=O)[C@H](Cc2ccc(O)cc2)NC(=O)[C@@H]2CCCN2C(=O)[C@@H](CCCNC(N)=O)NC1=O` [Derivative of T140 peptide], for which the midpoint of the response in assay [3], the EC50, lay at 0.4 nM. The compound also yielded an IC50 in assay [2] of 19 nM.
In assay [1], `NCCCC[C@@H]1NC(=O)[C@H](CCCNC(N)=O)NC(=O)[C@H](Cc2ccc(O)cc2)NC(=O)[C@@H](NC(=O)[C@@H](NC(=O)[C@H](CCCN=C(N)N)NC(=O)[C@@H](N)CCCN=C(N)N)c2ccc3ccccc3c2)CSSC[C@@H](C(=O)N[C@@H](CCCN=C(N)N)C(N)=O)NC(=O)[C@H](CCCNC(N)=O)NC(=O)[C@H](CCCNC(N)=O)NC(=O)[C@H](Cc2ccc(O)cc2)NC(=O)[C@@H]2CCCN2C(=O)[C@@H](CCCCN)NC1=O` [Derivative of T140 peptide] gave an EC50 of 6.8 nM.
With `NCCCC[C@@H]1NC(=O)[C@H](CCCNC(N)=O)NC(=O)[C@H](Cc2ccc(O)cc2)NC(=O)[C@@H](NC(=O)[C@@H](NC(=O)[C@H](CCCN=C(N)N)NC(=O)[C@@H](N)CCCNC(N)=O)c2ccc3ccccc3c2)CSSC[C@@H](C(=O)N[C@@H](CCCN=C(N)N)C(=O)O)NC(=O)[C@H](CCCNC(N)=O)NC(=O)[C@H](CCCN=C(N)N)NC(=O)[C@H](Cc2ccc(O)cc2)NC(=O)[C@@H]2CCCN2C(=O)[C@@H](CCCCN)NC1=O` [Derivative of T140 peptide], in assay [1], it took 37 nM to reach a half-maximal effect (EC50).
The compound `NCCCC[C@@H]1NC(=O)[C@H](CCCNC(N)=O)NC(=O)[C@H](Cc2ccc(O)cc2)NC(=O)[C@@H](NC(=O)[C@H](Cc2ccc3ccccc3c2)NC(=O)[C@H](CCCN=C(N)N)NC(=O)[C@@H](N)CCCNC(N)=O)CSSC[C@@H](C(=O)N[C@@H](CCCN=C(N)N)C(N)=O)NC(=O)[C@H](CCCNC(N)=O)NC(=O)[C@H](CCCN=C(N)N)NC(=O)[C@H](Cc2ccc(O)cc2)NC(=O)[C@@H]2CCCN2C(=O)[C@@H](CCCCN)NC1=O` [Derivative of T140 peptide] gave an EC50 in assay [1] of 6.6 nM.
`Nc1ccn([C@H]2CC[C@@H](CO)O2)c(=O)n1` [Dideoxycytidine]: it took 88 nM to reach a half-maximal effect in assay [1] (EC50).
As for `NCCCC[C@@H]1NC(=O)[C@H](CCCN=C(N)N)NC(=O)[C@H](Cc2ccc(O)cc2)NC(=O)[C@@H](NC(=O)[C@@H](NC(=O)[C@H](CCCN=C(N)N)NC(=O)[C@@H](N)CCCN=C(N)N)c2ccc3ccccc3c2)CSSC[C@@H](C(=O)N[C@@H](CCCN=C(N)N)C(=O)O)NC(=O)[C@H](CCCNC(N)=O)NC(=O)[C@H](CCCN=C(N)N)NC(=O)[C@H](Cc2ccc(O)cc2)NC(=O)[C@@H]2CCCN2C(=O)[C@@H](CCCNC(N)=O)NC1=O` [T140], the response in assay [3] was half-maximal at 4 nM (EC50). In assay [2], this compound displayed an IC50 of 23 nM.
